ChEMBL document CHEMBL6074674, “Development of Novel Silicon-Based Hydrophobic Tags (SiHyT) for Targeted Proteins Degradation” (J Med Chem, 2024)
The source made the active and inactive calls. The rule behind the calls is not given here.

What was measured:
[1] = test system: E3 ubiquitin-protein ligase RNF149/Epidermal growth factor receptor (Homo sapiens), P00533+Q8NC42 [UNDEFINED MUTATION]; assay: SiHyT-mediated degrader activity at RNF149/EGFR mutant in human HCC827 cels assessed as induction of EGFR degradation at 0.1 uM cells incubated in serum-free media for 8 hrs followed by incubation with compound for 24 hrs by western blot analysis; assay type: cell-based
Sequence of E3 ubiquitin-protein ligase RNF149/Epidermal growth factor receptor (Homo sapiens), P00533+Q8NC42 [UNDEFINED MUTATION] (P00533 whole entry, looked up, stated change not applied): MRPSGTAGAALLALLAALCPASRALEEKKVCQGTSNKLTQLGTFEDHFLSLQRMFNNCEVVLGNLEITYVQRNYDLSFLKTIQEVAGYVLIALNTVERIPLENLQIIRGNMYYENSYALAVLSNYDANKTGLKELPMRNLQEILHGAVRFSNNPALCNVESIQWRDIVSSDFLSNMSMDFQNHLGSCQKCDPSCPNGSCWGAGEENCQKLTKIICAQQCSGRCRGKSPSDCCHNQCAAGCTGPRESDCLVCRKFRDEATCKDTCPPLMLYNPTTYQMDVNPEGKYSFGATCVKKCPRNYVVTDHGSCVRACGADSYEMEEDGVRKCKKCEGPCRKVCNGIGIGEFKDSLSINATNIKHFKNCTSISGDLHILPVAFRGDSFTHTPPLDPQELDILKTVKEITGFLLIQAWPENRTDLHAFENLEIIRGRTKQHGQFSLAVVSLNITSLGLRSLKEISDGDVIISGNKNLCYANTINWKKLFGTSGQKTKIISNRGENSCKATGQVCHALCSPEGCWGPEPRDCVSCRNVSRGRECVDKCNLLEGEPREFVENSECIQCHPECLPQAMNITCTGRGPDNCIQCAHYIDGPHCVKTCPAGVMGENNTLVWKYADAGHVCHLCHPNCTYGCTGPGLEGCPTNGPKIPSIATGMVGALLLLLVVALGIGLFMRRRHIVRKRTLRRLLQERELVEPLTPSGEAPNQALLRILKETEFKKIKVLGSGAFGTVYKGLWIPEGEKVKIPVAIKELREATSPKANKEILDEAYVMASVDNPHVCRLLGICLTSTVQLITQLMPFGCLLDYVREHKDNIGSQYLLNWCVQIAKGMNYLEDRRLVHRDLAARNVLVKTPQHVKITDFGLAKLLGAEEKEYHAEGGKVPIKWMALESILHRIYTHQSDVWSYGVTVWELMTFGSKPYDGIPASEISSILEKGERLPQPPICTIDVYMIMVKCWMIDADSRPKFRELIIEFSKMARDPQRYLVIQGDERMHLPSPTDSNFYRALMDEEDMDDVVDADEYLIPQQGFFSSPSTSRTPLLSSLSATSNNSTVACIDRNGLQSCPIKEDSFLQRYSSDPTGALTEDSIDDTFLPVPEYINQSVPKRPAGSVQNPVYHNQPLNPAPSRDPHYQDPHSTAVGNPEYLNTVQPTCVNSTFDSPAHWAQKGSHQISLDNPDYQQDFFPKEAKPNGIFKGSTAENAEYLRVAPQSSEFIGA
Sequence of E3 ubiquitin-protein ligase RNF149/Epidermal growth factor receptor (Homo sapiens), P00533+Q8NC42 [UNDEFINED MUTATION] (Q8NC42 whole entry, looked up, stated change not applied): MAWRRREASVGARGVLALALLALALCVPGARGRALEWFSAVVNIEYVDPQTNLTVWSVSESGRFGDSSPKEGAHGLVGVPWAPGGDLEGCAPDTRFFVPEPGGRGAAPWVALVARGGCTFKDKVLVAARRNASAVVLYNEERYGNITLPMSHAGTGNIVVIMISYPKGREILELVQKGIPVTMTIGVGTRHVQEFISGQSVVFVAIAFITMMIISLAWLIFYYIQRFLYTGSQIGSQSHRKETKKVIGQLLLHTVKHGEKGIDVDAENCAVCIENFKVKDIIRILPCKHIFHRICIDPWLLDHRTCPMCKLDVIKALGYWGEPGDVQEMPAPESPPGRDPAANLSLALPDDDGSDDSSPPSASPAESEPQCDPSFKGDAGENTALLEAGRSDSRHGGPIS

[2] = test system: HCC827; assay: Antiproliferative activity against human HCC827 cells assessed as decrease in cell survival measured after 72 hrs by CCK-8 assay; assay type: functional, cell-based; details: HCC827, 72 h
[3] = test system: E3 ubiquitin-protein ligase RNF149/Epidermal growth factor receptor (Homo sapiens), P00533+Q8NC42 [UNDEFINED MUTATION]; assay: SiHyT-mediated degrader activity at RNF149/EGFR mutant in human HCC827 cells assessed as induction of EGFR degradation at 1 uM cells incubated in serum-free media for 8 hrs followed by incubation with compound for 24 hrs by western blot analysis; assay type: cell-based
[4] = Intrinsic clearance of the compound in human liver microsomes at 1 uM in presence of NADPH by LC-MS/MS analysis; assay type: ADME, Microsome; details: read-out: CLH
[5] = Half life of the compound in mouse liver microsomes at 1 uM in presence of NADPH by LC-MS/MS analysis; assay type: ADME, Microsome
[6] = Half life of the compound in human liver microsomes at 1 uM in presence of NADPH by LC-MS/MS analysis; assay type: ADME, Microsome
[7] = Intrinsic clearance of the compound in mouse liver microsomes at 1 uM in presence of NADPH by LC-MS/MS analysis; assay type: ADME, Microsome; details: read-out: CLH
[8] = test system: PC-9; assay: Antiproliferative activity against human PC-9 cells assessed as decrease in cell survival measured after 72 hrs by CCK-8 assay; assay type: functional, cell-based; details: PC-9, 72 h
[9] = test system: PC-9; assay: Induction of cell cycle arrest in human PC-9 cells assessed as increase in cell accumulation at G1 phase at 0.01 to 0.1 uM incubated for 24 hrs by propidium iodide staining based flow cytometry; assay type: functional; details: dose 0.01-0.1 µM
[10] = test system: HCC827; assay: Induction of cell cycle arrest in human HCC827 cells assessed as increase in cell accumulation at G1 phase at 0.01 to 0.1 uM incubated for 24 hrs by propidium iodide staining based flow cytometry; assay type: functional; details: dose 0.01-0.1 µM
[11] = (§1) SiHyT-mediated degrader activity at RNF149/BTK in human MOLM-13 cells assessed as induction of BTK degradation incubated for 24 hrs by western blot analysis; assay type: cell-based; details: MOLM-13, 24 h
[12] = test system: MOLM-13; assay: as §1; assay type: cell-based
[13] = test system: MOLM-13; assay: SiHyT-mediated degrader activity at RNF149/BTK in human MOLM-13 cells assessed as increase in BTK degradation by measuring decrease in BTK expression incubated for 12 hrs by proteomics analysis; assay type: cell-based
[14] = test system: MOLM-13; assay: SiHyT-mediated degrader activity at RNF149/BTK in human MOLM-13 cells assessed as induction of BTK degradation at 2.5 uM incubated for 3 to 24 hrs by western blot analysis; assay type: cell-based; details: time 3-24 hrs
[15] = test system: MOLM-13; assay: SiHyT-mediated degrader activity at RNF149/BTK in human MOLM-13 cells assessed as reduction in half life of BTK at 2.5 uM incubated for 6 to 24 hrs in presence of protein synthesis inhibitor, CHX by western blot analysis; assay type: cell-based; details: time 6-24 hrs
[16] = test system: MOLM-13; assay: SiHyT-mediated degrader activity at RNF149/BTK in human MOLM-13 cells assessed as increase in BTK ubiquitination pretreated with MG132 followed by incubation with compound for 9 hrs by immunoprecipitation based western blot analysis; assay type: cell-based
[17] = test system: MOLM-13; assay: SiHyT-mediated degrader activity at RNF149/BTK in human MOLM-13 cells assessed as induction of BTK degradation at 2.5 uM pretreated with proteasome inhibitor, MG-132 for 4 hrs followed by incubation with compound for 24 hrs by western blot analysis; assay type: cell-based
[18] = test system: MOLM-13; assay: SiHyT-mediated degrader activity at RNF149/BTK in human MOLM-13 cells assessed as induction of BTK degradation at 2.5 uM pretreated with E1 ligase inhibitor, PYR-41 for 4 hrs followed by incubation with compound for 24 hrs by western blot analysis; assay type: cell-based
[19] = test system: Kasumi 1; assay: SiHyT-mediated degrader activity at RNF149/PDL1 in human Kasumi 1 cells assessed as increase in PDL1 ubiquitination pretreated with MG132 followed by incubation with compound for 9 hrs by immunoprecipitation based western blot analysis; assay type: cell-based
[20] = test system: Kasumi 1; assay: SiHyT-mediated degrader activity at RNF149/PDL1 in human Kasumi 1 cells assessed as reduction in half life of PDL1 at 1 uM incubated for 6 to 24 hrs in presence of protein synthesis inhibitor, CHX by western blot analysis; assay type: cell-based; details: time 6-24 hrs
[21] = test system: Kasumi 1; assay: SiHyT-mediated degrader activity at RNF149/PDL1 in human Kasumi 1 cells assessed as induction of PDL1 degradation at 1 uM pretreated with E1 ligase inhibitor, PYR-41 for 4 hrs followed by incubation with compound for 24 hrs by western blot analysis; assay type: cell-based
[22] = test system: Kasumi 1; assay: SiHyT-mediated degrader activity at RNF149/PDL1 in human Kasumi 1 cells assessed as increase in PDL1 degradation by measuring decrease in PDL1 expression incubated for 12 hrs by proteomics analysis; assay type: cell-based
[23] = test system: Kasumi 1; assay: SiHyT-mediated degrader activity at RNF149/PDL1 in human Kasumi 1 cells assessed as induction of PDL1 degradation at 1 uM incubated for 3 to 24 hrs by western blot analysis; assay type: cell-based; details: time 3-24 hrs
[24] = (§2) SiHyT-mediated degrader activity at RNF149/PDL1 in human Kasumi 1 cells assessed as induction of PDL1 degradation incubated for 24 hrs by western blot analysis; assay type: cell-based; details: Kasumi 1, 24 h
[25] = test system: Kasumi 1; assay: as §2; assay type: cell-based
[26] = test system: Kasumi 1; assay: SiHyT-mediated degrader activity at RNF149/PDL1 in human Kasumi 1 cells assessed as induction of PDL1 degradation at 1 uM pretreated with proteasome inhibitor, MG-132 for 4 hrs followed by incubation with compound for 24 hrs by western blot analysis; assay type: cell-based

SMILES | Activity [1] [%] | IC50 [2] [µM] | Activity [3] [%] | further results
COc1cc2ncnc(Nc3ccc(F)c(Cl)c3)c2cc1OCCn1cc(CCCO[Si](C)(C)C2CCCCC2)nn1 | 52.3 | 0.15 | 55.3 | –
COc1cc2ncnc(Nc3ccc(F)c(Cl)c3)c2cc1OCCn1cc(CCCNC(=O)CC23CC4CC(CC(C4)C2)C3)nn1 | – | – | – | CLint scaled at 1 µM [4]: 690 mL/min/kg; half-life at 1 µM [5]: 1.05 min; half-life at 1 µM [6]: 1.81 min; CLint scaled at 1 µM [7]: 5230 mL/min/kg
COc1cc2ncnc(Nc3ccc(F)c(Cl)c3)c2cc1OCCCN1CCN(CCn2cc(CCCCO[Si](C)(C)C3CCCCC3)nn2)CC1 | 0 | > 10 | 18.4 | –
COc1cc2ncnc(Nc3ccc(F)c(Cl)c3)c2cc1OCCCN1CCN(CCn2cc(CCCO[Si](C)(C)C3CCCCC3)nn2)CC1 | 0 | > 10 | 13.7 | –
COc1cc2ncnc(Nc3ccc(F)c(Cl)c3)c2cc1OCCCN1CCOCC1 [GEFITINIB] | – | – | – | IC50 [8]: 0.013 µM; Activity [9]: Dose-dependent-effect; Activity [10]: Dose-dependent-effect
COc1cc2ncnc(Nc3ccc(F)c(Cl)c3)c2cc1OCCn1cc(CCCCO[Si](C)(C)C2CCCCC2)nn1 | 46.1 | 0.7 | 53.2 | –
COc1cc2ncnc(Nc3ccc(F)c(Cl)c3)c2cc1OCCCCCCCO[Si](c1ccccc1)(c1ccccc1)C(C)(C)C | 0 | > 10 | 0 | –
COc1cc2ncnc(Nc3ccc(F)c(Cl)c3)c2cc1OCCn1cc(CCCO[Si](C)(C)C(C)(C)C)nn1 | 19.7 | 5.62 | 22.4 | –
COc1cc2ncnc(Nc3ccc(F)c(Cl)c3)c2cc1OCCn1cc(CCO[Si](c2ccccc2)(c2ccccc2)C(C)(C)C)nn1 | 46.4 | 0.14 | 72.1 | –
O=C(O)Cc1ccccc1Nc1c(Cl)cccc1Cl [DICLOFENAC] | – | – | – | CLint scaled at 1 µM [4]: 179 mL/min/kg; half-life at 1 µM [5]: 50.2 min; half-life at 1 µM [6]: 6.96 min; CLint scaled at 1 µM [7]: 109 mL/min/kg
COc1cc2ncnc(Nc3ccc(F)c(Cl)c3)c2cc1OCCOCCO[Si](c1ccccc1)(c1ccccc1)C(C)(C)C | 0 | > 10 | 0 | –
CC(C)(C)[Si](OCCn1cc(CCC(=O)N2CCC[C@@H](n3nc(-c4ccc(Oc5ccccc5)cc4)c4c(N)ncnc43)C2)nn1)(c1ccccc1)c1ccccc1 | – | – | – | DC50 [11]: 2.78 µM; Activity [12]: Active; Activity [13]: Active; Activity [14]: Time-dependent-effect; Activity [15]: Active; Activity [16]: Active; Activity [17]: inactive; Activity [18]: inactive
COc1cc2ncnc(Nc3ccc(F)c(Cl)c3)c2cc1OCCn1cc(CCCC(=O)NCC2CC3C=CC2C3)nn1 (configuration not stated) | – | – | – | CLint scaled at 1 µM [4]: 132 mL/min/kg; half-life at 1 µM [5]: 8.94 min; half-life at 1 µM [6]: 9.48 min; CLint scaled at 1 µM [7]: 614 mL/min/kg
COc1cc2ncnc(Nc3ccc(F)c(Cl)c3)c2cc1OCCn1cc(CCCNC(=O)CO[C@@H]2C[C@H](C)CC[C@H]2C(C)C)nn1 | – | – | – | CLint scaled at 1 µM [4]: 295 mL/min/kg; half-life at 1 µM [5]: 7.4 min; half-life at 1 µM [6]: 4.22 min; CLint scaled at 1 µM [7]: 741 mL/min/kg
COc1cc2ncnc(Nc3ccc(F)c(Cl)c3)c2cc1OCCCCCCCCO[Si](c1ccccc1)(c1ccccc1)C(C)(C)C | 0 | > 10 | 0 | –
COc1cc2ncnc(Nc3ccc(F)c(Cl)c3)c2cc1OCCCN1CCN(CCn2cc(CCCCO[Si](c3ccccc3)(c3ccccc3)C(C)(C)C)nn2)CC1 | 0 | 3.04 | 0 | –
COc1cc2ncnc(Nc3ccc(F)c(Cl)c3)c2cc1OCCn1cc(CCCCO[Si](c2ccccc2)(c2ccccc2)C(C)(C)C)nn1 | 28 | 0.11 | 58.4 | –
COc1cc(OCc2cccc(-c3ccccc3)c2C)cc(OC)c1CNCc1cn(CCO[Si](c2ccccc2)(c2ccccc2)C(C)(C)C)nn1 | – | – | – | Activity [19]: Active; Activity [20]: Active; Activity [21]: inactive; Activity [22]: Active; Activity [23]: Time-dependent-effect; DC50 [24]: 0.51 µM; Activity [25]: Active; Activity [26]: inactive
COc1cc2ncnc(Nc3ccc(F)c(Cl)c3)c2cc1OCCOCCOCCO[Si](c1ccccc1)(c1ccccc1)C(C)(C)C | 0 | > 10 | 20.1 | –
COc1cc2ncnc(Nc3ccc(F)c(Cl)c3)c2cc1OCCCN1CCN(CCn2cc(CCO[Si](c3ccccc3)(c3ccccc3)C(C)(C)C)nn2)CC1 | 0 | 0.99 | 58 | –
CC[Si](CC)(CC)OCCCc1cn(CCOc2cc3c(Nc4ccc(F)c(Cl)c4)ncnc3cc2OC)nn1 | 38.2 | 0.33 | 79.1 | –
COc1cc2ncnc(Nc3ccc(F)c(Cl)c3)c2cc1OCCCN1CCN(CCn2cc(CCCO[Si](c3ccccc3)(c3ccccc3)C(C)(C)C)nn2)CC1 | 0 | 1.58 | 10.8 | –
COc1cc2ncnc(Nc3ccc(F)c(Cl)c3)c2cc1OCCn1cc(CCO[Si](C)(C)C2CCCCC2)nn1 | 12.7 | 0.45 | 47 | –
COc1cc2ncnc(Nc3ccc(F)c(Cl)c3)c2cc1OCCCN1CCN(CCO[Si](c2ccccc2)(c2ccccc2)C(C)(C)C)CC1 | 0 | > 10 | 16.8 | –
COc1cc2ncnc(Nc3ccc(F)c(Cl)c3)c2cc1OCCn1cc(CCCO[Si](C(C)C)(C(C)C)C(C)C)nn1 | 4.2 | 7.46 | 18.2 | –
COc1cc2ncnc(Nc3ccc(F)c(Cl)c3)c2cc1OCCCN1CCN(CCCO[Si](c2ccccc2)(c2ccccc2)C(C)(C)C)CC1 | 0 | > 10 | 0 | –
